Drawing on EP1914236A1 (Ortho-McNeil Pharmaceutical, Inc., priority 2002, dated 2003), this text covers Ki for 33 compounds.

pKi: −log10 of the molar value.

The target in the experiment is T1, human B2 bradykinin receptors (Homo sapiens, UniProt P30411).
T1 construct: purchased Receptor Biology, Inc. (Baltimore, MD); host or cells: CHO-K1 cells transfected with the human B2 receptor (membranes)
T1 sequence (P30411 1-391): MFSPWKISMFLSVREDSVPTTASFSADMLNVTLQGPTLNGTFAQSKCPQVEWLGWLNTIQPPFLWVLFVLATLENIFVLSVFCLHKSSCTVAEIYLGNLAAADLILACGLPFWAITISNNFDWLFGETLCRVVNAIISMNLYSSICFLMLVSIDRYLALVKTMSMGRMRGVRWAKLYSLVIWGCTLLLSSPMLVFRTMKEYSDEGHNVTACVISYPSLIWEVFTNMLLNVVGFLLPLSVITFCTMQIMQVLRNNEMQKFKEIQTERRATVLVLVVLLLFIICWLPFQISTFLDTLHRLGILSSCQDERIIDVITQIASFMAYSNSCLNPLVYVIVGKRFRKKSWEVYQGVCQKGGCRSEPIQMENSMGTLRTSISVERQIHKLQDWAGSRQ
In words: Bradykinin B2 (BK2) Receptor Binding Assay. As to conditions: membranes of CHO-K1 cells transfected with human B2 bradykinin receptors; ~0.25 nM [3H]NPC17731; 60 min at 25°C. Here is the method:
Cell membranes of CHO-K1 cells transfected with human B2 bradykinin receptors (CH)-hB2) were purchased from Receptor Biology, Inc. (Baltimore,MD).
Samples were harvested on a Brandel Cell Harvester on to Wallac filtermat B sheets (96 sample format), and washed three times with 2 mL cold HEPES-buffer (10 mM, pH 7.5), and dried in a microwave oven.
The data were used to calculate either the % inhibition compared to control binding (when only a single concentration of test compound was evaluated) or a Ki value (when a range of concentrations were tested). Background was subtracted from mean cpm values and % inhibition was calculated as: [(total dpm-test compound dpm)/(total dpm-nonspecific dpm)]x100. Kd and Ki values were calculated using GraphPad PRISM data analysis program.
Regarding `CCCCCC(=O)c1ccc(CC(=O)N(C)c2ccc(Cl)c(COc3cccc4ccc(C)nc34)c2Cl)n1C` [Compound 23, N-[2,4-Dichloro-3-(2-methyl-quinolin-8-yloxymethyl)-phenyl]-2-(5-hexanoyl-1-methyl-1H-pyrrol-2-yl)-N-methyl-acetamide], the pKi (usually −log10 of the Ki, conventionally taken in molar units) was 5.27.
Regarding `Cc1ccc2cccc(OCc3c(Cl)ccc(N(C)C(=O)Cc4ccc(C(=O)C5CCCCC5)n4C)c3Cl)c2n1` [Compound 30], the pKi was 5.75.
Compound `Cc1ccc2cccc(OCc3c(Cl)ccc(N(C)C(=O)Cc4ccc(C(=O)c5ccc(C(F)(F)F)cc5)n4C)c3Cl)c2n1` [Compound 51] showed a pKi of 6.32.
In the case of `Cc1ccc(-c2ccc(CC(=O)N(C)c3ccc(C)c(COc4cccc5ccc(C)nc45)c3C)n2C)cc1` [Compound 98, N-[2,4-Dimethyl-3-(2-methyl-quinolin-8-yloxymethyl)-phenyl]-N-methyl-2-(1-methyl-5-p-tolyl-1H-pyrrol-2-yl)-acetamide] it was 5.44; in that of `Cc1ccc2cccc(OCc3c(Cl)ccc(N(C)C(=O)Cc4ccc(C(=O)CN5CCCC5)n4C)c3Cl)c2n1` [Compound 37], 6.07; in that of `CCOc1ccc(C(=O)c2ccc(CCC(=O)N(C)c3ccc(C)c(COc4cccc5ccc(C)nc45)c3C)n2C)cn1` [Compound 86], 6.51.
To `COc1ccc(C(=O)c2ccc(CC(=O)Nc3ccc(Cl)c(COc4cccc5ccc(C)nc45)c3Cl)n2C)cc1` [Compound 119] belongs 4.85.
As to `CSc1ccc(C(=O)c2ccc(CC(=O)N(C)c3ccc(Cl)c(COc4cccc5ccc(C)nc45)c3Cl)n2C)s1` [Compound 43], the pKi is 6.17.
The compound `Cc1ccc2cccc(OCc3c(Cl)ccc(N(C)C(=O)Cc4ccc(C(=O)c5ccc(Br)cc5)n4C)c3Cl)c2n1` [Compound 35] gave a pKi of 5.98.
On to `Cc1ccc2cccc(OCc3c(Cl)ccc(N(C)C(=O)Cc4ccc(C(=O)c5ccc(N)cc5)n4C)c3Cl)c2n1` [Compound 56, 2-[5-(4-Amino-benzoyl)-methyl-1H-pyrrol-2-yl]-N-[2,4-dichloro-3-(2-methyl-quinolin-8-yloxymethyl)-phenyl]-N-methyl-acetamide], for which the pKi was 6.39.
Take `Cc1ccc2cccc(OCc3c(Cl)ccc(N(C)C(=O)Cc4ccc(C(=O)C=Cc5ccccc5)n4C)c3Cl)c2n1` [Compound 27]: the pKi was 5.42.
On to `Cc1ccc2cccc(OCc3c(Cl)ccc(N(C)C(=O)Cc4ccc(C(=O)c5cccc([N+](=O)[O-])c5)n4C)c3Cl)c2n1` [Compound 42], for which the pKi was 6.16.
To `Cc1ccc2cccc(OCc3c(Cl)ccc(N(C)C(=O)Cc4ccc(C(=O)CN(C)c5ccccn5)n4C)c3Cl)c2n1` [Compound 49] belongs 6.29.
To `Cc1ccc2cccc(OCc3c(Cl)ccc(N(C)C(=O)Cc4ccc(C(=O)c5ccc(C#N)cc5)[nH]4)c3Cl)c2n1` [Compound 6, 2-[5-(4-Cyano-benzoyl)-1 H-pyrrol-2-yl]-N-[2,4-dichloro-3-(2-methyl-quinolin-8-yloxymethyl)-phenyl]-N-methyl-acetamide] belongs 7.39.
As to `Cc1ccc2cccc(OCc3c(Cl)ccc(N(C)C(=O)Cc4ccc(C(=O)c5ccc6ccccc6c5)n4C)c3Cl)c2n1` [Compound 26], the pKi was 5.39.
In the case of `Cc1ccc2cccc(OCc3c(Cl)ccc(N(C)C(=O)Cc4ccc(C(=O)c5ccccc5N)n4C)c3Cl)c2n1` [Compound 53] it was 6.41; in that of `Cc1ccc2cccc(OCc3c(Cl)ccc(N(C)C(=O)Cc4ccc(C(=O)c5cnc(Cl)c(Cl)c5)n4C)c3Cl)c2n1` [Compound 52], 6.37; in that of `Cc1ccc2cccc(OCc3c(Cl)ccc(N(C)C(=O)Cc4ccc(C(=O)c5ccc6c(c5)OCO6)n4C)c3Cl)c2n1` [Compound 50], 6.23.
To `COc1ccc(C(=O)c2cc(CC(=O)N(C)c3ccc(Cl)c(COc4cccc5ccc(C)nc45)c3Cl)n(C)c2)cc1` [Compound 2, N-[2,4-Dichloro-3-(2-methyl-quinolin-8-yloxymethyl)-phenyl]-2-[4-(4-methoxybenzoyl)-1-methyl-1 H-pyrrol-2-yl]-N-methyl-acetamide] belongs 6.29.
To `CCOc1ccc(C(=O)c2ccc(CCC(=O)N(C)c3ccc(Cl)c(COc4cccc5ccc(C)nc45)c3Cl)n2C)cn1` [Compound 87] belongs 6.84; to `Cc1ccc2cccc(OCc3c(Cl)ccc(N(C)C(=O)Cc4ccc(C(=O)Cc5ccccc5)n4C)c3Cl)c2n1` [Compound 28], 5.63; to `CCN(CC)CC(=O)c1ccc(CC(=O)N(C)c2ccc(Cl)c(COc3cccc4ccc(C)nc34)c2Cl)n1C` [Compound 48], 6.29.
With `COc1ccc(C(=O)c2c(C)cc(CC(=O)Nc3ccc(Cl)c(COc4cccc5ccc(C)nc45)c3Cl)n2C)cc1` [Compound 120], the negative-log Ki (pKi) is 5.81.
`Cc1ccc2cccc(OCc3c(Cl)ccc(N(C)C(=O)Cc4ccc(C(=O)c5ccc(N(C)C)cc5)n4C)c3Cl)c2n1` [Compound 118, N-[2,4-Dichloro-3-(2-methyl-quinolin-8-yloxymethyl)-phenyl]-2-[5-(4-dimethylamino-benzoyl)-1-methyl-1H-pyrrol-2-yl]-N-methyl-acetamide] gave a pKi of 6.37.
To `CC(C)=CC(=O)c1ccc(CC(=O)N(C)c2ccc(Cl)c(COc3cccc4ccc(C)nc34)c2Cl)n1C` [Compound 39] belongs 6.11; to `Cc1nc2c(OCc3c(Cl)ccc(N(C)C(=O)Cc4ccc(C(=O)c5ccc(C#N)cc5)n4C)c3Cl)cccn2c1Br` [Compound 102, N-[3-(3-Bromo-2-methyl-imidazo[1,2-a]pyridin-8-yloxymethyl)-2,4-dichlorophenyl]-2-[5-(4-cyano-benzoyl)-1-methyl-1H-pyrrol-2-yl]-N-methyl-acetamide], 7.32; to `Cc1ccc2cccc(OCc3c(Cl)ccc(N(C)C(=O)Cc4ccc(C(=O)CN(C)c5ccccc5)n4C)c3Cl)c2n1` [Compound 24], 5.27.
To “2-(5-Benzoyl-thiophen-2-yl)-N-[2,4-dimethyl-3-(2-methyl-quinolin-8-yloxymethyl)-phenyl]-N-methyl-acetamide [Compound 108]” belongs 7.05; to `COc1ccc(C(=O)c2ccc(CCC(=O)N(C)c3ccc(C)c(COc4cccc5ccc(C)nc45)c3C)s2)cc1` [Compound 106], 6.43.
In the case of `Cc1ccc2cccc(OCc3c(Cl)ccc(N(C)C(=O)Cc4ccc(C(=O)c5cccc(N)c5)n4C)c3Cl)c2n1` [Compound 57] it was 6.44; in that of `Cc1ccc2cccc(OCc3c(Cl)ccc(N(C)C(=O)Cc4ccc(C(=O)c5ccc(Cl)cc5)n4C)c3Cl)c2n1` [Compound 40], 6.12; in that of `Cc1ccc2cccc(OCc3c(Cl)ccc(N(C)C(=O)Cc4ccc(C(=O)c5ccc(CN6CCCC6)cc5)n4C)c3Cl)c2n1` [Compound 46, N-[2,4-Dichloro-3-(2-methyl-quinolin-8-yloxymethyl)-phenyl]-N-methyl-2-[l-methyl-5-(4-pyrrolidin-1-ylmethyl-benzoyl)-1H-pyrrol-2-yl]-acetamide], 6.25.
`CCn1cc(CC(=O)N(C)c2ccc(Cl)c(COc3cccc4ccc(C)nc34)c2Cl)cc1C(=O)c1ccc(C#N)cc1` [Compound 3, 2-[5-(4-Cyano-benzoyl)-1-ethyl-1H-pyrrol-3-yl]-N-[2,4-dichloro-3-(2-methyl-quinolin-8-yloxymethyl)phenyl]-N-methyl-acetamide]: the pKi was 6.27.
